pIC50: −log10 of the molar value.
Biological target: KRAS (aa 1-169) G12C, C51S, C80L, C118S (Homo sapiens (Human), UniProt P01116, C118S/C51S/C80L/G12C)
Assay: Biochemical functional assay: SOS1-mediated nucleotide exchange of GDP-loaded KRAS G12C, binding to GST-cRaf RBD, FRET readout
Conditions: 3 hrs pre-incubation with compound at 24° C., SOS1, GTPyS; for pIC50: inhibition of nucleotide exchange
Outline: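 GDP-loaded His-tagged KRAS construct preincubated with compound 3 h at 24° C in 25 mM HEPES pH7.5, 10 mM MgCl2, 0.01% Triton X-100; SOS1 (aa 564-1049), GTPγS and GST-cRaf RBD added for 3 h, then anti-His Tb cryptate/anti-GST XL665 for 3 h. HTRF 665/620 ratio; IC50 by four-parameter logistic fit.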

Sequence of KRAS (aa 1-169) G12C, C51S, C80L, C118S (P01116 other isoform, or with tags, fused parts or gaps G12C/C51S/C80L/C118S): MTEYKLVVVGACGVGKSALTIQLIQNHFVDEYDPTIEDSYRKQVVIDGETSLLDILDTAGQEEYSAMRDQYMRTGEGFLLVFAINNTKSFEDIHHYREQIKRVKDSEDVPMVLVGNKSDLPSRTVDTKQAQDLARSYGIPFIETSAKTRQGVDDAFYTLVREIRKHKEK

Row | SMILES | pIC50 | IC50 (bound in uM) [µM]
1 | C=CC(=O)N1CCN(c2nc(N3CC(N(C)C)C3)nc3cc(-c4cccc5ccccc45)c4c(c23)OCCC4)CC1 [Compound B10, 1-(4-(8-(3-(dimethylamino)azetidin-1-yl)-5-(naphthalen-1-yl)-3,4-dihydro-2H-pyrano[2,3-f]quinazolin-10-yl)piperazin-1-yl)prop-2-en-1-one] | 6.63 | –
2 | C=CC(=O)N1CCN(c2nc(OC[C@@H]3C[C@@H](F)CN3C)nc3cc(-c4c(Cl)c(C)cc5[nH]ncc45)c4c(c23)OCCC4)CC1 [Compound B15, 1-(4-(5-(5-chloro-6-methyl-1H-indazol-4-yl)-8-(((2S,4R)-4-fluoro-1-methylpyrrolidin-2-yl)methoxy)-3,4-dihydro-2H-pyrano[2,3-f]quinazolin-10-yl)piperazin-1-yl)prop-2-en-1-one] | 6.97 | –
3 | C=C(F)C(=O)N1CCN(c2nc(OC[C@@H]3CCCN3C)nc3cc(-c4cccc(Cl)c4C(F)(F)F)c4c(c23)OCCC4)C[C@@H]1CC#N [Compound B103, 2-((S)-4-(5-(3-chloro-2-(trifluoromethyl)phenyl)-8-(((S)-1-methylpyrrolidin-2-yl)methoxy)-3,4-dihydro-2H-pyrano[2,3-f]quinazolin-10-yl)-1-(2-fluoroacryloyl)piperazin-2-yl)acetonitrile] | 8.16 | –
4 | C=CC(=O)N1CCN(c2ncnc3cc(-c4ccc(O)c(Cl)c4)c4c(c23)OCCC4)C[C@@H]1CC#N [Compound A27, (S)-2-(1-acryloyl-4-(5-(3-chloro-4-hydroxyphenyl)-3,4-dihydro-2H-pyrano[2,3-f]quinazolin-10-yl)piperazin-2-yl)acetonitrile] | – | > 10
